Key:
[1] = tested on: 1205Lu and HT-29 tumor cell lines; assay: Seahorse XF Cell Mito Stress Test, tumor cell lines; format: cell-based, human; conditions: 500 nM (sublethal), 24 hours
Protocol: FIG. 2A: IMR90 cells (non-transformed fibroblasts), 1205Lu (melanoma), and HT-29 (CRC) cancer cells were treated with sub-lethal doses (500 nM) of the HSP70 inhibitors PET-16 (positive control) or AP-4-139B for 24 hours. Cells were then subjected to the Seahorse Mito Stress Test Assay. Injections were Oligomycin (1 μM, line A), FCPP (0.5-1 μM, line B), and Rotenone/Antimycin A (1 μM, line C). Each graphical representation indicates the mean±standard deviation of a minimum of 5 technical replicates. […] Each experiment was performed in triplicate and independently repeated twice. FIGS. 2B-2D: Basal Oxygen Consumption Rate (ORC) (FIG. 2B), Maximal OCR (FIG. 2C), and ATP production (FIG. 2D) were analyzed in IMR90 fibroblasts, non-transformed colonic epithelial cells (CCD 841 CoN), 1205Lu melanoma cells and HT-29 CRC cells, in the presence or absence of 500 nM HSP70 inhibitors or negative control (VY-3-277). All experiments were performed in triplicate, with each group containing 5-6 technical replicates. ** p<0.01, *** p<0.001, n.s. not significant.
The XF Cell Mito Stress Test was performed. […] For extracellular ATP release, ATP was measured using the CellTiter-Glo Kit (Promega catalog #G7570). […] 10 μl of CellTiter-Glo Reaction Mix was then mixed with 10 μl of culture media; the luminescence signal was detected using a luminometer.

[2] = target: T1, HSP70 (Homo sapiens, UniProt P0DMV8); assay: HSP70 competition assay in H1299 cells; format: binding; conditions: 10 μM, one-hour pre-incubation
T1 construct: BAP-4-139B successfully precipitated a single protein from H1299 cells; endogenous in cells; host or cells: H1299 human lung carcinoma cells
Protocol: FIGS. 1A-1D show ATPase inhibition and direct binding of a novel HSP70 inhibitor. FIG. 1A: Compounds AP-3-97 and AP-4-139B are direct inhibitors of HSP70. HSP70 mediated ATPase activity was assessed using the TRANSCREENER® ADP-FI assay. Five microliters of 30 nM purified human HSP70 in assay buffer was added to test compounds for 30 minutes, followed by addition of excess ATP. After 15 minutes, reactions were stopped and fluorescence was assessed on a plate reader. Data are normalized to percent inhibition, where 100% is the value in the absence of HSP70, and 0% is the value in the presence of HSP70. Compounds shown include PET-16 (positive control) and the novel HSP70 inhibitors AP-3-97 and AP-4-139B. VY-3-277 was used as a negative control. FIG. 1B: Compound AP-4-139B binds HSP70. Whole cell extracts (WCE) from H1299 cells were incubated with 10 μM Biotin or with a Biotin-labeled variant of AP-4-139B (Biotin-AP-4-139B) for 5 hours. Biotin-AP-4-139B containing complexes were captured using NeutrAvidin resins and separated by SDS-PAGE. The Coomassie-stained protein band of approximately 70 kDa was excised and subjected to tryptic digestion and liquid chromatography-tandem mass spectrometry, and identified to be HSP70. […] Data were analyzed using the evaluation software from Biacore and the resulting sensograms were exported and re-plotted in GraphPad Prism. […]

T1 sequence (P0DMV8 whole entry): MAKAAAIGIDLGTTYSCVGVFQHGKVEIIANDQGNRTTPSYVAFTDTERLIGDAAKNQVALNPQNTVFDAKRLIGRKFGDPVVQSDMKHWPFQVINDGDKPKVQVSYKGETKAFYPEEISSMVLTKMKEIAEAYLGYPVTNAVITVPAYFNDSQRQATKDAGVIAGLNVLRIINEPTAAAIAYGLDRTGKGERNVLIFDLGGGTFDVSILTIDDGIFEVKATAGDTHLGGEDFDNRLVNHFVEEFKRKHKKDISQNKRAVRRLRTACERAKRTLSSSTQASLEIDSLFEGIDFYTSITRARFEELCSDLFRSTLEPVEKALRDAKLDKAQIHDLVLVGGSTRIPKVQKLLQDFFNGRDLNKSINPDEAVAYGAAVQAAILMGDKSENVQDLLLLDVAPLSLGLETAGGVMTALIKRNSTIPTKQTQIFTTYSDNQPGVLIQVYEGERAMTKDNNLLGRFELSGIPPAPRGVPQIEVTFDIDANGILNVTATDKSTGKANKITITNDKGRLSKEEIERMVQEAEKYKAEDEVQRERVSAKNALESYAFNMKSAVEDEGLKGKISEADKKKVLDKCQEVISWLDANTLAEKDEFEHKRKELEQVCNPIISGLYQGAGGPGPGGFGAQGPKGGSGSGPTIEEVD

`c1ccc(-c2cn3nc(CCCCCC[P+](c4ccccc4)(c4ccccc4)c4ccccc4)sc3n2)cc1` [AP-4-139B, Triphenyl(6-(6-phenylimidazo[2,1-b][1,3,4]thiadiazol-2-yl)hexyl)phosphonium bromide] was tested, and the “basal oxygen consumption rate and ATP production in tumor cell lines” value [1] was “reduced basal oxygen consumption rate and ATP production” and the “prevention of BAP-4-139B pull down of HSP70” value [2] was “prevented the ability of BAP-4-139B to pull down HSP70”.

For `C(#C[P+](c1ccccc1)(c1ccccc1)c1ccccc1)c1ccccc1` [PET-16, Triphenyl(phenylethynyl)phosphonium bromide, reference compound], the “basal oxygen consumption rate and ATP production in tumor cell lines” value [1] was “minimal activity” and the “prevention of BAP-4-139B pull down of HSP70” value [2] was “prevented the ability of BAP-4-139B to pull down HSP70”.
